According to patent publication US7452688B2, “Transformed cell with enhanced sensitivity to antifungal compound and use thereof” (Sumitomo Chemical Company, Limited, priority 2002, dated 2008):

Assays:
Format in all cases: cell-based, Saccharomyces cerevisiae
[1] = tested on: transformed budding yeast AH22-BcOS1; assay: Antifungal compound sensitivity test, transformed budding yeast AH22-BcOS1 (Example 3); conditions: 30° C. 48 hours, absorbance at 600 nm relative to 0 ppm = 100
Protocol: The transformed budding yeast AH22-BcOS1 prepared in Example 2 was cultured while shaking at 30° C. for 18 hours in a Glu-Leu medium. As a control, the AH22 strain was similarly cultured while shaking at 30° C. for 18 hours in a Glu medium. The absorbance at 600 nm of each of the grown transformed budding yeasts in a cell suspension was measured, and a cell suspension diluted with sterilized distilled water to the absorbance of 0.1 was prepared. Further, a cell suspension in which the aforementioned cell suspension of the transformed budding yeast AH22-BcOS1 was diluted 200-fold with a Glu-Leu medium, and a cell suspension in which the aforementioned cell suspension of the AH22 strain was diluted 200-fold with a Glu medium were prepared. A solution in which each of Compounds (1) to (3) was dissolved in dimethylsulfoxide (DMSO) to the concentration of 60 ppm, a solution in which each of Compounds (4) and (5) was dissolved in dimethylsulfoxide (DMSO) to the concentration of 2000 ppm, and a solution in which each of Compounds (6) and (7) was dissolved in dimethylsulfoxide (DMSO) to the concentration of 20 ppm were prepared, and two microplates were prepared in which each 2.0 μL per well of the Compound solution and DMSO as a control were dispensed into two wells. In one microplate among them, each 200 μL of cell suspensions of the transformed budding yeast AH22-BcOS1 which had been prepared by dilution as described above was dispensed, and cultured by allowing to stand at 30° C. for 48 hours. In another microplate, each 200 μL of the cell suspensions of the control yeast AH22 strain which had been prepared by dilution as described above was dispensed, and cultured by allowing to stand at 30° C. for 48 hours. After culturing, the absorbance at 600 nm of each well was measured with a microplate reader.
Degree of growths of both of the transformed budding yeasts cultured under the presence of each of Compound (1) to (7) and budding yeast as a control therefor are shown in Table 1. Degree of growths of both of the transformed budding yeasts and budding yeasts as a control therefor are expressed by a relative value in percentage, letting the absorbance at 600 nm in a well having the concentration of the aforementioned Compound of 0 ppm to be 100. It was confirmed that an inhibiting degree of growth of TM182-BcOS1 by each test substance was grater than an inhibiting degree of growth of AH22-BcOS1 by each test substance, and the TM182-BcOS1 was a transformed cell with the enhanced sensitivity to an antifungal compound as compared with AH22-BcOS1.

[2] = tested on: transformed budding yeast AH22-BcOS1-I365S; assay: Antifungal compound sensitivity test, transformed budding yeast AH22-BcOS1-I365S (Example 6); conditions: absorbance at 600 nm relative to 0 ppm = 100
Excerpt: Degrees of growths of both of the transformed budding yeasts cultured under the presence of Compounds (1) to (7) and budding yeast as a control therefor are shown in Table 2. Degrees of growths of both of the transformed budding yeasts and budding yeast as a control are expressed by a relative value in percentage, letting the absorbance at 600 nm at the concentration of the Compound of 0 ppm to be 100. It was confirmed that an inhibiting degree of growth of the transformed budding yeast TM182-BcOS1-I 365S by each test substance was grater than an inhibiting degree of growth of the transformed budding yeast AH22-BcOS1-I 365S by each test substance, and the transformed budding yeast TM182-BcOS1-I365S was a transformed cell with the enhanced sensitivity to an antifungal compound as compared with the transformed budding yeast AH22-BcOS1-I365S.

[3] = tested on: AH22 strain; assay: Antifungal compound sensitivity test, control yeast AH22 strain (Example 19); conditions: 30° C. 24.8 hours, relative value in percentage
Protocol: The transformed budding yeast AH22-RsOS1 prepared in Example 18 was cultured while shaking at 30° C. for 18 hours in a Glu-Leu medium. As a control, the AH22 strain was similarly cultured while shaking at 30° C. for 18 hours in a Glu medium. The absorbance at 600 nm of each grown transformed budding yeast in a cell suspension was measured, and cell suspension diluted with sterilized distilled water to the absorbance of 0.1 was prepared. Further, a cell suspension in which the aforementioned cell suspension of the transformed budding yeast AH22-RsOS1 was diluted 50-fold with a Glu-Leu medium, and a cell suspension in which the aforementioned cell suspension of the AH22 strain was diluted 50-fold with a Glu medium were prepared.
A solution in which each of Compounds (1) to (5) was dissolved in dimethylsulfoxide (DMSO) to the concentration of 600 ppm, and a solution in which Compounds (6) and (7) was dissolved in dimethylsulfoxide (DMSO) to the concentration of 60 ppm were prepared, and two microplates were prepared in which each 1.0 μL per well of the Compound solution and DMSO as a control were dispensed. In one microplate among them, each 100 μL of cell suspensions of the transformed budding yeast AH22-RsOS1 which had been prepared by dilution as described above was dispensed, and cultured by allowing to stand at 30° C. for 29.8 hours. In another microplate, each 100 μL of cell suspensions of the control yeast AH22 strain which had been prepared by dilution as described above was dispensed, and cultured by allowing to stand at 30° C. for 24.8 hours. After culturing, the absorbance at 600 nm of each well was measured with a microplate reader.
A degree of growth of the transformed budding yeast is expressed as a relative value in percentage, letting the absorbance at 600 nm at the concentration of the Compound of 0 ppm to be 100. It was confirmed that an inhibiting degree of growth of the transformed budding yeast TM182-RsOS1 by each test substance was grater than an inhibiting degree of growth of the transformed budding yeast AH22-RsOS1 by each test substance, and the transformed budding yeast TM182-RsOS1 was a transformed cell with the enhanced sensitivity to an antifungal compound as compared with the transformed budding yeast AH22-RsOS1.

SMILES	Degree of growth of budding yeast (%) AH22-BcOS1 Glu-Leu medium ([1]; final concentration 0.6 ppm) [%]	Degree of growth of budding yeast (%) AH22-BcOS1-I365S Glu-Leu medium ([2]; final concentration 6 ppm) [%]	Degree of growth of budding yeast AH22 Glu medium ([3]; final concentration 6.0 ppm) [%]	Degree of growth of budding yeast (%) AH22-BcOS1 Glu-Leu medium ([1]; final concentration 20 ppm) [%]	Degree of growth of budding yeast (%) AH22-BcOS1-I365S Glu-Leu medium ([2]; final concentration 20 ppm) [%]	Degree of growth of budding yeast (%) AH22-BcOS1 Glu-Leu medium ([1]; final concentration 0.2 ppm) [%]	Degree of growth of budding yeast (%) AH22-BcOS1-I365S Glu-Leu medium ([2]; final concentration 0.2 ppm) [%]	Degree of growth of budding yeast AH22 Glu medium ([3]; final concentration 0.6 ppm) [%]
CC12CC1(C)C(=O)N(c1cc(Cl)cc(Cl)c1)C2=O (stereo not drawn) [Compound (1), Procymidone]	90	68	88					
O=[N+]([O-])c1c(Cl)c(Cl)c(Cl)c(Cl)c1Cl [Compound (4), Quintozene]			83	45	83			
CC(C)NC(=O)N1CC(=O)N(c2cc(Cl)cc(Cl)c2)C1=O [Compound (2), Iprodione]	92	81	92					
COP(=S)(OC)Oc1c(Cl)cc(C)cc1Cl [Compound (5), Tolclofos-methyl]			78	79	64			
N#Cc1c[nH]cc1-c1cccc2c1OC(F)(F)O2 [Compound (6), Fludioxonil]						81	67	79
N#Cc1c[nH]cc1-c1cccc(Cl)c1Cl [Compound (7), Fenpiclonil]						94	79	85
C=CC1(C)OC(=O)N(c2cc(Cl)cc(Cl)c2)C1=O (stereo not drawn) [Compound (3), Vinclozolin]	93	75	82					
